# Laboratory results published in PubChem BioAssay (NCI).
#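 Protocol summary: plate cells (96-well), add compound at 5 concentrations, incubate 48 h, interpolate endpoints linearly. GI50 is the concentration that inhibits growth by half. TGI marks complete inhibition of growth.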
# Columns and labels:
# Assay in all cases: DTP human tumour cell line panel, 48 h
# NCI-H23 lung = tested on: NCI-H23 lung
# NCI-H460 lung = tested on: NCI-H460 lung
# NCI-H522 lung = tested on: NCI-H522 lung
# NCI/ADR-RES ovarian = tested on: NCI/ADR-RES ovarian
# OVCAR-3 ovarian = tested on: OVCAR-3 ovarian
# OVCAR-4 ovarian = tested on: OVCAR-4 ovarian
# OVCAR-5 ovarian = tested on: OVCAR-5 ovarian
# OVCAR-8 ovarian = tested on: OVCAR-8 ovarian
# PC-3 prostate = tested on: PC-3 prostate
# RPMI-8226 leukemia = tested on: RPMI-8226 leukemia
# RXF 393 renal = tested on: RXF 393 renal
# SF-268 CNS = tested on: SF-268 CNS
# SF-295 CNS = tested on: SF-295 CNS
# SF-539 CNS = tested on: SF-539 CNS
# SK-MEL-2 melanoma = tested on: SK-MEL-2 melanoma
# SK-MEL-28 melanoma = tested on: SK-MEL-28 melanoma
# SK-MEL-5 melanoma = tested on: SK-MEL-5 melanoma
# SK-OV-3 ovarian = tested on: SK-OV-3 ovarian
# SN12C renal = tested on: SN12C renal
# SNB-19 CNS = tested on: SNB-19 CNS
# SNB-75 CNS = tested on: SNB-75 CNS
# SR leukemia = tested on: SR leukemia
# SW-620 colon = tested on: SW-620 colon
# T-47D breast = tested on: T-47D breast
# TK-10 renal = tested on: TK-10 renal
# U251 CNS = tested on: U251 CNS
# UACC-257 melanoma = tested on: UACC-257 melanoma
# UACC-62 melanoma = tested on: UACC-62 melanoma
# UO-31 renal = tested on: UO-31 renal
structure (smiles),measurement,setting,value
COc1cccc(C2=C(c3cn(C)c4cccc(OC)c34)C(=O)NC2=O)c1,TGI,NCI-H23 lung,> 25 µM
same,GI50,NCI-H460 lung,8.75 µM
same,TGI,NCI-H460 lung,> 25 µM
same,GI50,NCI-H522 lung,1.67 µM
same,TGI,NCI-H522 lung,> 19.7 µM
same,GI50,NCI/ADR-RES ovarian,5.28 µM
same,TGI,NCI/ADR-RES ovarian,> 25 µM
same,GI50,OVCAR-3 ovarian,7.74 µM
same,TGI,OVCAR-3 ovarian,> 25 µM
same,GI50,OVCAR-4 ovarian,> 21.3 µM
same,TGI,OVCAR-4 ovarian,> 25 µM
same,GI50,OVCAR-5 ovarian,> 23.5 µM
same,TGI,OVCAR-5 ovarian,> 25 µM
same,GI50,OVCAR-8 ovarian,18.5 µM
same,TGI,OVCAR-8 ovarian,> 25 µM
same,GI50,PC-3 prostate,8.02 µM
same,TGI,PC-3 prostate,> 25 µM
same,GI50,RPMI-8226 leukemia,9.09 µM
same,TGI,RPMI-8226 leukemia,> 24.1 µM
same,GI50,RXF 393 renal,5.03 µM
same,TGI,RXF 393 renal,> 19 µM
same,GI50,SF-268 CNS,16.4 µM
same,TGI,SF-268 CNS,> 25 µM
same,GI50,SF-295 CNS,7.05 µM
same,TGI,SF-295 CNS,> 25 µM
same,GI50,SF-539 CNS,6.58 µM
same,TGI,SF-539 CNS,18.6 µM
same,GI50,SK-MEL-2 melanoma,7.75 µM
same,TGI,SK-MEL-2 melanoma,> 25 µM
same,GI50,SK-MEL-28 melanoma,> 19.1 µM
same,TGI,SK-MEL-28 melanoma,> 25 µM
same,GI50,SK-MEL-5 melanoma,7.36 µM
same,TGI,SK-MEL-5 melanoma,> 25 µM
same,GI50,SK-OV-3 ovarian,11.6 µM
same,TGI,SK-OV-3 ovarian,> 25 µM
same,GI50,SN12C renal,15.1 µM
same,TGI,SN12C renal,> 25 µM
same,GI50,SNB-19 CNS,> 25 µM
same,TGI,SNB-19 CNS,> 25 µM
same,GI50,SNB-75 CNS,4.94 µM
same,TGI,SNB-75 CNS,24.5 µM
same,GI50,SR leukemia,2.08 µM
same,TGI,SR leukemia,> 25 µM
same,GI50,SW-620 colon,6.89 µM
same,TGI,SW-620 colon,> 25 µM
same,GI50,T-47D breast,13.7 µM
same,TGI,T-47D breast,> 25 µM
same,GI50,TK-10 renal,15.3 µM
same,TGI,TK-10 renal,> 25 µM
same,GI50,U251 CNS,11.5 µM
same,TGI,U251 CNS,> 25 µM
same,GI50,UACC-257 melanoma,> 15.9 µM
same,TGI,UACC-257 melanoma,> 25 µM
same,GI50,UACC-62 melanoma,7.17 µM
same,TGI,UACC-62 melanoma,> 25 µM
same,GI50,UO-31 renal,17.9 µM
same,TGI,UO-31 renal,> 25 µM
